Laboratory results published in article PMC4955148, “Identification and functional characterization of novel xylose transporters from the cell factories Aspergillus niger and Trichoderma reesei” (Biotechnology for Biofuels, 2016).

System: T1, AnXltB
T1 construct: gene xltB; whole-cell uptake
Experiment: […]-sugar initial uptake ([…] s) in yeast, Michaelis-Menten fit
Type: cell-based, Aspergillus niger
Details: labelled compound; transport into intact cells; 100 mM PBS pH 6.5, 30 °C; read-out: Xylose initial uptake kinetics / K m

**Q.** How did the Km turn out when `OC1OC[C@@H](O)[C@H](O)[C@H]1O` (stereo partly shown) [xylose] was run?
**A.** 15 ± 4.5 mM
